Results on 7 molecules are retold here after patent publication US10294202B2, “Pyrrolidinones as herbicides” (FMC Corporation, priority 2013, dated 2019).

Molecules are shown by their SMILES.

One assay deals with buckwheat, wild. Description: Test D pre-/postemergence herbicide test. The format is in vivo, Polygonum convolvulus. The note with it: for Plant response rating: Buckwheat, Wild, scale 0 to 100; for Plant response rating, Buckwheat, Wild: scale 0 to 100 (0 no effect, 100 complete control). An excerpt: (§1) Seeds of plant species selected from bluegrass (annual bluegrass, Poa annua), blackgrass (Alopecurus myosuroides), canarygrass (littleseed canarygrass, Phalaris minor), chickweed (common chickweed, Stellaria media), galium (catchweed bedstraw, Galium aparine), bromegrass, downy (downy bromegrass, Bromus tectorum), field poppy (Papaver rhoeas), field violet (Viola arvensis), foxtail, green (green foxtail, Setaria viridis), deadnettle (henbit deadnettle, Lamium amplexicaule), ryegrass, Italian (Italian ryegrass, Lolium multiflorum), kochia (Kochia scoparia), lambsquarters (Chenopodium album), oilseed rape (Brassica napus), pigweed (Amaranthus retroflexus), chamomile (scentless chamomile, Matricaria inodora), Russian thistle (Salsola kali), speedwell (bird's-eye speedwell, Veronica persica), barley, spring (spring barley, Hordeum vulgare), wheat, spring (spring wheat, Triticum aestivum), buckwheat, wild (wild buckwheat, Polygonum convolvulus), mustard, wild (wild mustard, Sinapis arvensis), oat, wild (wild oat, Avena fatua), radish, wild (wild radish, Raphanus raphanistrum), […]), barley, winter (winter barley, Hordeum vulgare), and wheat, winter (winter wheat, Triticum aestivum) were planted into a silt loam soil and treated preemergence with test chemicals formulated in a non-phytotoxic solvent mixture which included a surfactant. At the same time, these species were planted in pots containing Redi-Earth® planting medium (Scotts Company, 14111 Scottslawn Road, Marysville, Ohio 43041) comprising spaghnum peat moss, vermiculite, wetting agent and starter nutrients and treated with postemergence applications of the test chemicals formulated in the same manner. Plants ranged in height from 2 to 18 cm (1- to 4-leaf stage). Treated plants and controls were maintained in a controlled growth environment for 7 to 21 days after which time all species were compared to controls and visually evaluated. Plant response ratings, summarized in Table D, are based on a scale of 0 to 100 where 0 is no effect and 100 is complete control. A dash (-) response means no test result.

Another assay has as its system oat, wild. The experiment in a line: Test D pre-/postemergence herbicide test. Conditions: for Plant response rating: Postemergence, Oat, Wild, scale 0 to 100; for Plant response rating, Oat, Wild: Preemergence, scale 0 to 100 (0 no effect, 100 complete control). The format is in vivo, Avena fatua.
Excerpt: as §1

A further assay concerns arrowleaf sida. Description: Test E preemergence herbicide test. The format is in vivo, Sida rhombifolia. On the set-up: key: 0 = no effect, 100 = complete control. The source says:
(§2) Seeds of plant species selected from corn (Zea mays), soybean (Glycine max), velvetleaf (Abutilon theophrasti), lambsquarters (Chenopodium album), wild poinsettia (Euphorbia heterophylla), pigweed, palmer (palmer pigweed, Amaranthus palmeri), waterhemp (common waterhemp, Amaranthus rudis), surinam grass (Brachiaria decumbens), crabgrass, large (large crabgrass, Digitaria sanguinalis), crabgrass, Brazil (Brazilian crabgrass, Digitaria horizontalis), panicum, fall (fall panicum, Panicum dichotomiflorum), foxtail, giant (giant foxtail, Setaria faberii), foxtail, green (green foxtail, Setaria viridis), goosegrass (Eleusine indica), johnsongrass (Sorghum halepense), ragweed (common ragweed, Ambrosia elatior), barnyardgrass (Echinochloa crus-galli), sandbur (southern sandbur, Cenchrus echinatus), arrowleaf […] rhombifolia), ryegrass, Italian (Italian ryegrass, Lolium multiflorum), dayflower, VA (Virginia dayflower, Commelina virginica), field bindweed (Convolvulus arvensis), morningglory (Ipomoea coccinea), nightshade (eastern black nightshade, Solanum ptycanthum), kochia (Kochia scoparia), nutsedge, yellow (yellow nutsedge, Cyperus esculentus), cocklebur (common cocklebur, Xanthium strumarium), smartweed (ladysthumb smartweed, Polygonum Persicaria) and beggarticks (hairy beggarticks, Bidens pilosa), were planted into a silt loam soil and treated preemergence with test chemicals formulated in a non-phytotoxic solvent mixture which included a surfactant. Treated plants and controls were maintained in a greenhouse for 21 days, after which time all species were compared to controls and visually evaluated. Plant response ratings, summarized in Table E, are based on a scale of 0 to 100 where 0 is no effect and 100 is complete control. A dash (-) response means no test result.

Another assay concerns sandbur. The experiment in a line: Test E preemergence herbicide test. On the set-up: key: 0 = no effect, 100 = complete control. The format is in vivo, Cenchrus echinatus.
Excerpt: as §2

The subject of a further assay is johnsongrass. The experiment in a line: Test E preemergence herbicide test. The format is in vivo, Sorghum halepense. On the set-up: key: 0 = no effect, 100 = complete control.
Excerpt: as §2

The subject of a further assay is nutsedge, yellow. Description: Test E preemergence herbicide test. The format is in vivo, Cyperus esculentus. On the set-up: key: 0 = no effect, 100 = complete control.
Excerpt: as §2

For a further assay, the system named is foxtail, giant. Description: Test E preemergence herbicide test. The format is in vivo, Setaria faberii. On the set-up: key: 0 = no effect, 100 = complete control.
Excerpt: as §2

As to `O=C1NCC(c2ccc(F)c(F)c2)C1C(=O)Nc1cccc(F)c1` (racemic) [Compound 12], the Plant response rating with buckwheat, wild (Postemergence, 16 g ai/ha) is 0; in the assay on buckwheat, wild (Postemergence, 31 g ai/ha), 0; with buckwheat, wild (Postemergence, 62 g ai/ha), 10; in the assay with buckwheat, wild (Postemergence, 125 g ai/ha), 10; in the assay on buckwheat, wild (Postemergence, 250 g ai/ha), 10; with buckwheat, wild (Preemergence, 125 g ai/ha), 0. Moreover, the Plant response rating in the assay with buckwheat, wild (Preemergence, 250 g ai/ha) came to 100; with oat, wild (16 g ai/ha) it was 0; in the assay with oat, wild (31 g ai/ha), 0; with oat, wild (62 g ai/ha), 10; in the assay with oat, wild (125 g ai/ha), 15; with oat, wild (250 g ai/ha), 20. Moreover, the “Plant response rating, Buckwheat, Wild” value is listed as 0 with buckwheat, wild (Preemergence, 31 g ai/ha); 0 in the assay with buckwheat, wild (Preemergence, 62 g ai/ha); 0 with buckwheat, wild (Preemergence, 16 g ai/ha). Besides, the “Plant response rating, Oat, Wild” value in the assay with oat, wild (31 g ai/ha) is on record as 0; in the assay with oat, wild (62 g ai/ha), 0; in the assay on oat, wild (125 g ai/ha) it was 0; with oat, wild (250 g ai/ha), 0; in the assay on oat, wild (16 g ai/ha) it was 0.

On to `O=C1NCC(c2cc(F)c(F)c(F)c2)C1C(=O)Nc1ccccc1C(F)(F)F` (racemic) [Compound 33], for which the Plant response rating is 0 in the assay on buckwheat, wild (Postemergence, 16 g ai/ha); 0 with buckwheat, wild (Postemergence, 31 g ai/ha); 0 with buckwheat, wild (Postemergence, 62 g ai/ha); 0 with buckwheat, wild (Postemergence, 125 g ai/ha); 10 with buckwheat, wild (Postemergence, 250 g ai/ha); 0 in the assay on oat, wild (16 g ai/ha). For the same molecule, the Plant response rating in the assay with oat, wild (31 g ai/ha) turned out to be 0; in the assay on oat, wild (62 g ai/ha), 0; in the assay with oat, wild (125 g ai/ha), 0; in the assay on oat, wild (250 g ai/ha) it was 0.

In the case of `O=C1NCC(c2cccc(C(F)(F)F)c2)C1C(=O)Nc1cccc(F)c1F` (stereo not shown) [Compound 241], the “Plant response rating, Buckwheat, Wild” value is reported as 15 in the assay with buckwheat, wild (Preemergence, 31 g ai/ha); 15 in the assay on buckwheat, wild (Preemergence, 62 g ai/ha); 20 in the assay on buckwheat, wild (Preemergence, 125 g ai/ha). In the assay with buckwheat, wild (Preemergence, 250 g ai/ha), this molecule registered a Plant response rating of 80. The “Plant response rating, Oat, Wild” value in the assay with oat, wild (31 g ai/ha) was determined as 15; in the assay on oat, wild (62 g ai/ha) it was 15; in the assay on oat, wild (125 g ai/ha), 20; in the assay with oat, wild (250 g ai/ha) it was 55.

With `O=C1NCC(c2cccc(Br)c2)C1C(=O)Nc1ccccc1F` (stereo not shown) [Compound 66], the “Plant response rating, Arrowleaf Sida” value with arrowleaf sida (16 g ai/ha), with arrowleaf sida (31 g ai/ha), in the assay on arrowleaf sida (62 g ai/ha), in the assay with arrowleaf sida (125 g ai/ha) and in the assay on arrowleaf sida (250 g ai/ha) was 0 each time. Moreover, the “Plant response rating, Sandbur” value with sandbur (16 g ai/ha) was 0; in the assay on sandbur (31 g ai/ha) it was 0; in the assay with sandbur (62 g ai/ha) it was 0; with sandbur (125 g ai/ha), 0; with sandbur (250 g ai/ha) it was 35. In addition, the “Plant response rating, Johnsongrass” value in the assay with johnsongrass (16 g ai/ha), with johnsongrass (31 g ai/ha), in the assay on johnsongrass (62 g ai/ha), with johnsongrass (125 g ai/ha) and with johnsongrass (250 g ai/ha) was 0 throughout. Also, the “Plant response rating, Nutsedge, Yellow” value in the assay on nutsedge, yellow (16 g ai/ha) amounted to 0; with nutsedge, yellow (31 g ai/ha), 0; in the assay on nutsedge, yellow (62 g ai/ha) it was 0; with nutsedge, yellow (125 g ai/ha), 0; in the assay with nutsedge, yellow (250 g ai/ha), 0. For the same molecule, the “Plant response rating, Foxtail, Giant” value with foxtail, giant (16 g ai/ha) stood at 0; with foxtail, giant (31 g ai/ha), 0; in the assay on foxtail, giant (62 g ai/ha), 0; with foxtail, giant (125 g ai/ha), 98.

As for `O=C1NCC(c2cccc(C(F)(F)F)c2)C1C(=O)Nc1ccc(F)cc1F` (racemic) [Compound 207], the “Plant response rating, Buckwheat, Wild” value in the assay on buckwheat, wild (Preemergence, 31 g ai/ha) came to 0; in the assay with buckwheat, wild (Preemergence, 62 g ai/ha) it was 15; with buckwheat, wild (Preemergence, 125 g ai/ha) it was 25. The Plant response rating in the assay with buckwheat, wild (Preemergence, 250 g ai/ha) was 35. Also, the “Plant response rating, Oat, Wild” value was 0 in the assay on oat, wild (31 g ai/ha); 0 with oat, wild (62 g ai/ha); 5 with oat, wild (125 g ai/ha); 20 in the assay on oat, wild (250 g ai/ha).

Take `O=C1NCC(c2ccc(C(F)(F)F)cc2)C1C(=O)Nc1ccc(F)c(F)c1F` (stereo not shown) [Compound 232]: the “Plant response rating, Arrowleaf Sida” value with arrowleaf sida (31 g ai/ha) was 0; with arrowleaf sida (62 g ai/ha), 20; with arrowleaf sida (125 g ai/ha), 65; in the assay on arrowleaf sida (250 g ai/ha) it was 90. Also, the “Plant response rating, Sandbur” value in the assay on sandbur (31 g ai/ha) stood at 35; in the assay with sandbur (62 g ai/ha), 65; in the assay on sandbur (125 g ai/ha), 90; in the assay on sandbur (250 g ai/ha) it was 90. Besides, the “Plant response rating, Johnsongrass” value amounted to 0 in the assay on johnsongrass (31 g ai/ha), 0 with johnsongrass (62 g ai/ha), 0 in the assay with johnsongrass (125 g ai/ha) and 25 in the assay with johnsongrass (250 g ai/ha). The “Plant response rating, Nutsedge, Yellow” value in the assay with nutsedge, yellow (31 g ai/ha) came out at 0; in the assay with nutsedge, yellow (62 g ai/ha), 0; in the assay on nutsedge, yellow (125 g ai/ha), 0; in the assay with nutsedge, yellow (250 g ai/ha), 0. Besides, the “Plant response rating, Foxtail, Giant” value was found to be 35 with foxtail, giant (31 g ai/ha); 90 with foxtail, giant (62 g ai/ha); 95 in the assay with foxtail, giant (125 g ai/ha); 98 in the assay with foxtail, giant (250 g ai/ha).

On to `O=C1NCC(c2cc(F)c(F)c(F)c2)C1C(=O)Nc1ccccc1F` (racemic) [Compound 34], for which the Plant response rating in the assay with buckwheat, wild (Postemergence, 16 g ai/ha) was 0; in the assay on buckwheat, wild (Postemergence, 31 g ai/ha), 0; with buckwheat, wild (Postemergence, 62 g ai/ha), 0; in the assay on buckwheat, wild (Postemergence, 125 g ai/ha), 0; in the assay on buckwheat, wild (Postemergence, 250 g ai/ha), 0; in the assay on oat, wild (16 g ai/ha), 0. Further, the Plant response rating in the assay with oat, wild (31 g ai/ha) is given as 0; in the assay with oat, wild (62 g ai/ha), 0; in the assay on oat, wild (125 g ai/ha) it was 0; in the assay with oat, wild (250 g ai/ha) it was 0.
